The values below come from US20140343000A1 (priority 2011, published 2014).

What is called EC50 is the concentration needed to bring the measured effect to its halfway point.

One test concerns recombinant NL4-3 virus (Renilla luciferase in nef, Gag P373S; NLRluc) in MT-2 cells. Kind of test: whole plant or invertebrate. In kind it is cell-based, HIV. Conditions: Renilla, NL43, luciferase activity in cells infected for 4-5 days with NLRluc recombinants, serial dilutions of inhibitor; class symbols (key in Table 1); read-out: EC50. In outline:
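Read-out is Renilla luciferase, measured immediately after adding a premixed lysis/Dual Luciferase reagent. The reporter virus, NL4-3 with luciferase replacing part of nef plus Gag P373S, infected MT-2 cells for 4–5 days under serially diluted inhibitor.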
Regarding `C=C(C)[C@@H]1CC[C@]2(NCCNS(C)(=O)=O)CC[C@]3(C)[C@H](CC[C@@H]4[C@@]5(C)CC=C(c6ccc(C(=O)O)cc6)C(C)(C)[C@@H]5CC[C@]43C)[C@@H]12` [Example B21, 4-((1R,3aS,5aR,5bR,7aR,11aS,11bR,13aR,13bR)-5a,5b,8,8,11a-pentamethyl-3a-((2-(methylsulfonamido)ethyl)amino)-1-(prop-1-en-2-yl)-2,3,3a,4,5,5a,5b,6,7,7a,8,11,11a,11b,12,13,13a,13b-octadecahydro-1H-cyclopenta[a]chrysen-9-yl)benzoic acid], the EC50 was less than 100 nM.

For the molecule `C=C(C)[C@@H]1CC[C@]2(NCCN3CCN(S(=O)(=O)C4CC4)CC3)CC[C@]3(C)[C@H](CC[C@@H]4[C@@]5(C)CC=C(c6ccc(C(=O)O)cc6)C(C)(C)[C@@H]5CC[C@]43C)[C@@H]12` [Example B22, 4-((1R,3aS,5aR,5bR,7aR,11aS,11bR,13aR,13bR)-3a-((2-(4-(cyclopropylsulfonyl)piperazin-1-yl)ethyl)amino)-5a,5b,8,8,11a-pentamethyl-1-(prop-1-en-2-yl)-2,3,3a,4,5,5a,5b,6,7,7a,8,11,11a,11b,12,13,13a,13b-octadecahydro-1H-cyclopenta[a]chrysen-9-yl)benzoic acid], the EC50 is less than 100 nM.

Regarding `C=C(C)[C@@H]1CC[C@]2(NCCN3CCN(S(=O)(=O)CCC)CC3)CC[C@]3(C)[C@H](CC[C@@H]4[C@@]5(C)CC=C(c6ccc(C(=O)O)cc6)C(C)(C)[C@@H]5CC[C@]43C)[C@@H]12` [Example B23, 4-((1R,3aS,5aR,5bR,7aR,11aS,11bR,13aR,13bR)-5a,5b,8,8,11a-pentamethyl-1-(prop-1-en-2-yl)-3a-((2-(4-(propylsulfonyl)piperazin-1-yl)ethyl)amino)-2,3,3a,4,5,5a,5b,6,7,7a,8,11,11a,11b,12,13,13a,13b-octadecahydro-1H-cyclopenta[a]chrysen-9-yl)benzoic acid], the EC50 was less than 100 nM.

For the molecule `C=C(C)[C@@H]1CC[C@]2(NCCN3CCN(C(C)=O)CC3)CC[C@]3(C)[C@H](CC[C@@H]4[C@@]5(C)CC=C(c6ccc(C(=O)O)cc6)C(C)(C)[C@@H]5CC[C@]43C)[C@@H]12` [Example B24, 4-((1R,3aS,5aR,5bR,7aR,11aS,11bR,13aR,13bR)-3a-((2-(4-acetylpiperazin-1-yl)ethyl)amino)-5a,5b,8,8,11a-pentamethyl-1-(prop-1-en-2-yl)-2,3,3a,4,5,5a,5b,6,7,7a,8,11,11a,11b,12,13,13a,13b-octadecahydro-1H-cyclopenta[a]chrysen-9-yl)benzoic acid], the EC50 is less than 100 nM.

For `C=C(C)[C@@H]1CC[C@]2(NCCN3CCN(C(=O)C(=O)N(C)C)CC3)CC[C@]3(C)[C@H](CC[C@@H]4[C@@]5(C)CC=C(c6ccc(C(=O)O)cc6)C(C)(C)[C@@H]5CC[C@]43C)[C@@H]12` [Example B25, 4-((1R,3aS,5aR,5bR,7aR,11aS,11bR,13aR,13bR)-3a-((2-(4-(2-(dimethylamino)-2-oxoacetyl)piperazin-1-yl)ethyl)amino)-5a,5b,8,8,11a-pentamethyl-1-(prop-1-en-2-yl)-2,3,3a,4,5,5a,5b,6,7,7a,8,11,11a,11b,12,13,13a,13b-octadecahydro-1H-cyclopenta[a]chrysen-9-yl)benzoic acid], the EC50 was less than 100 nM.

Turning to `C=C(C)[C@@H]1CC[C@]2(NCCN3CCN(S(=O)(=O)C(C)C)CC3)CC[C@]3(C)[C@H](CC[C@@H]4[C@@]5(C)CC=C(c6ccc(C(=O)O)cc6)C(C)(C)[C@@H]5CC[C@]43C)[C@@H]12` [Example B26, 4-((1R,3aS,5aR,5bR,7aR,11aS,11bR,13aR,13bR)-3a-((2-(4-(isopropylsulfonyl)piperazin-1-yl)ethyl)amino)-5a,5b,8,8,11a-pentamethyl-1-(prop-1-en-2-yl)-2,3,3a,4,5,5a,5b,6,7,7a,8,11,11a,11b,12,13,13a,13b-octadecahydro-1H-cyclopenta[a]chrysen-9-yl)benzoic acid], the EC50 was less than 100 nM.

For the molecule `C=C(C)[C@@H]1CC[C@]2(NCCN3CCN(C(C)(C)C)CC3)CC[C@]3(C)[C@H](CC[C@@H]4[C@@]5(C)CC=C(c6ccc(C(=O)O)cc6)C(C)(C)[C@@H]5CC[C@]43C)[C@@H]12` [Example B27, 4-((1R,3aS,5aR,5bR,7aR,11aS,11bR,13aR,13bR)-3a-((2-(4-(tert-butyl)piperazin-1-yl)ethyl)amino)-5a,5b,8,8,11a-pentamethyl-1-(prop-1-en-2-yl)-2,3,3a,4,5,5a,5b,6,7,7a,8,11,11a,11b,12,13,13a,13b-octadecahydro-1H-cyclopenta[a]chrysen-9-yl)benzoic acid], the EC50 was less than 100 nM.

`C=C(C)[C@@H]1CC[C@]2(NCCN3CCN(C)CC3)CC[C@]3(C)[C@H](CC[C@@H]4[C@@]5(C)CC=C(c6ccc(C(=O)O)cc6)C(C)(C)[C@@H]5CC[C@]43C)[C@@H]12` [Example B28, 4-((1R,3aS,5aR,5bR,7aR,11aS,11bR,13aR,13bR)-5a,5b,8,8,11a-pentamethyl-3a-((2-(4-methylpiperazin-1-yl)ethyl)amino)-1-(prop-1-en-2-yl)-2,3,3a,4,5,5a,5b,6,7,7a,8,11,11a,11b,12,13,13a,13b-octadecahydro-1H-cyclopenta[a]chrysen-9-yl)benzoic acid]: the EC50 is less than 100 nM.

Turning to `C=C(C)[C@@H]1CC[C@]2(NCCN3CCN(C(=O)C(=O)N4CCCCC4)CC3)CC[C@]3(C)[C@H](CC[C@@H]4[C@@]5(C)CC=C(c6ccc(C(=O)O)cc6)C(C)(C)[C@@H]5CC[C@]43C)[C@@H]12` [Example B29, 4-((1R,3aS,5aR,5bR,7aR,11aS,11bR,13aR,13bR)-5a,5b,8,8,11a-pentamethyl-3a-((2-(4-(2-oxo-2-(piperidin-1-yl)acetyl)piperazin-1-yl)ethyl)amino)-1-(prop-1-en-2-yl)-2,3,3a,4,5,5a,5b,6,7,7a,8,11,11a,11b,12,13,13a,13b-octadecahydro-1H-cyclopenta[a]chrysen-9-yl)benzoic acid], the EC50 is less than 100 nM.

For `C=C(C)[C@@H]1CC[C@]2(NCCNS(=O)(=O)C(C)C)CC[C@]3(C)[C@H](CC[C@@H]4[C@@]5(C)CC=C(c6ccc(C(=O)O)cc6)C(C)(C)[C@@H]5CC[C@]43C)[C@@H]12` [Example B30, 4-((1R,3aS,5aR,5bR,7aR,11aS,11bR,13aR,13bR)-5a,5b,8,8,11a-pentamethyl-3a-((2-(1-methylethylsulfonamido)ethyl)amino)-1-(prop-1-en-2-yl)-2,3,3a,4,5,5a,5b,6,7,7a,8,11,11a,11b,12,13,13a,13b-octadecahydro-1H-cyclopenta[a]chrysen-9-yl)benzoic acid], the EC50 is less than 100 nM.

As for `C=C(C)[C@@H]1CC[C@]2(NCCNS(=O)(=O)C3CC3)CC[C@]3(C)[C@H](CC[C@@H]4[C@@]5(C)CC=C(c6ccc(C(=O)O)cc6)C(C)(C)[C@@H]5CC[C@]43C)[C@@H]12` [Example B31, 4-((1R,3aS,5aR,5bR,7aR,11aS,11bR,13aR,13bR)-3a-((2-(cyclopropanesulfonamido)ethyl)amino)-5a,5b,8,8,11a-pentamethyl-1-(prop-1-en-2-yl)-2,3,3a,4,5,5a,5b,6,7,7a,8,11,11a,11b,12,13,13a,13b-octadecahydro-1H-cyclopenta[a]chrysen-9-yl)benzoic acid], the EC50 was less than 100 nM.

As to `C=C(C)[C@@H]1CC[C@]2(NCCN3CCCCS3(=O)=O)CC[C@]3(C)[C@H](CC[C@@H]4[C@@]5(C)CC=C(c6ccc(C(=O)O)cc6)C(C)(C)[C@@H]5CC[C@]43C)[C@@H]12` [Example B32, 4-((1R,3aS,5aR,5bR,7aR,11aS,11bR,13aR,13bR)-3a-((2-(1,1-dioxido-1,2-thiazinan-2-yl)ethyl)amino)-5a,5b,8,8,11a-pentamethyl-1-(prop-1-en-2-yl)-2,3,3a,4,5,5a,5b,6,7,7a,8,11,11a,11b,12,13,13a,13b-octadecahydro-1H-cyclopenta[a]chrysen-9-yl)benzoic acid], the EC50 is less than 100 nM.

`C=C(C)[C@@H]1CC[C@]2(NCCNS(=O)(=O)CCC)CC[C@]3(C)[C@H](CC[C@@H]4[C@@]5(C)CC=C(c6ccc(C(=O)O)cc6)C(C)(C)[C@@H]5CC[C@]43C)[C@@H]12` [Example B34, 4-((1R,3aS,5aR,5bR,7aR,11aS,11bR,13aR,13bR)-5a,5b,8,8,11a-pentamethyl-1-(prop-1-en-2-yl)-3a-((2-(propylsulfonamido)ethyl)amino)-2,3,3a,4,5,5a,5b,6,7,7a,8,11,11a,11b,12,13,13a,13b-octadecahydro-1H-cyclopenta[a]chrysen-9-yl)benzoic acid]: the EC50 was less than 100 nM.

As to `C=C(C)[C@@H]1CC[C@]2(NCCN3CCN(S(=O)(=O)CC(C)C)CC3)CC[C@]3(C)[C@H](CC[C@@H]4[C@@]5(C)CC=C(c6ccc(C(=O)O)cc6)C(C)(C)[C@@H]5CC[C@]43C)[C@@H]12` [Example B35, 4-((1R,3aS,5aR,5bR,7aR,11aS,11bR,13aR,13bR)-3a-((2-(4-(isobutylsulfonyl)piperazin-1-yl)ethyl)amino)-5a,5b,8,8,11a-pentamethyl-1-(prop-1-en-2-yl)-2,3,3a,4,5,5a,5b,6,7,7a,8,11,11a,11b,12,13,13a,13b-octadecahydro-1H-cyclopenta[a]chrysen-9-yl)benzoic acid], the EC50 was less than 100 nM.

The same test, now with this note: Renilla, NL43, luciferase activity in cells infected for 4-5 days with NLRluc recombinants, serial dilutions of inhibitor; numeric values; read-out: EC50.
On to `C=C(C)[C@@H]1CC[C@]2(NCCNS(=O)(=O)CC)CC[C@]3(C)[C@H](CC[C@@H]4[C@@]5(C)CC=C(c6ccc(C(=O)O)cc6)C(C)(C)[C@@H]5CC[C@]43C)[C@@H]12` [Example B33, 4-((1R,3aS,5aR,5bR,7aR,11aS,11bR,13aR,13bR)-3a-((2-(ethylsulfonamido)ethyl)amino)-5a,5b,8,8,11a-pentamethyl-1-(prop-1-en-2-yl)-2,3,3a,4,5,5a,5b,6,7,7a,8,11,11a,11b,12,13,13a,13b-octadecahydro-1H-cyclopenta[a]chrysen-9-yl)benzoic acid], for which the 50% effective concentration (EC50) was determined as 5 nM.
